Data: patent US6414147B1, “2-amino-9-alkylpurines: GABA brain receptor ligands” (Neurogen Corporation, priority 1998, dated 2002)

First: C=C(C)COc1nc(Nc2ccc(OC)nc2)nc2c1ncn2CCCC [compound 67, 2-[(2-Methoxypyrid-5-yl)amino]-6-(2-methyl-2-propen-1-oxy)-9-butyl-9H-purine]
Second: C=C(C)COc1nc(Nc2ccc(OCC)nc2)nc2c1ncn2CCC [compound 77, 2-[(2-Ethoxypyrid-5-yl)amino]-6-(2-methyl-2-propen-1-oxy)-9-propyl-9H-purine]
The melting point of the first is higher: 131 to 133 °C for the first, 112 to 114 °C for the second.

First: CCCCn1cnc2c(OCCC)nc(Nc3ccccc3)nc21 [compound 4, 2-(Phenylamino)-6-propoxy-9-butyl-9H-purine]
Second: CCCCn1cnc2c(OCC)nc(Nc3ccccc3)nc21 [compound 3, 2-(Phenylamino)-6-ethoxy-9-butyl-9H-purine]
The melting point of the first is lower: 115 to 116 °C for the first, 159 to 160 °C for the second.

First: COc1nc(Nc2ccccc2)nc2c1ncn2Cc1ccccc1 [compound 25, 2-(Phenylamino)-6-methoxy-9-benzyl-9H-purine]
Second: CCCCn1cnc2c(OCc3ccccc3)nc(Nc3ccccc3)nc21 [compound 14, 2-(Phenylamino)-6-benzyloxy-9-butyl-9H-purine]
The melting point of the first is higher: 165 to 167 °C for the first, 163 to 164 °C for the second.

Compared with `C=CCSc1nc(Nc2ccc(OC)nc2)nc2c1ncn2CCCC` [compound 69, 2-[(2-Methoxypyrid-5-yl)amino]-6-allylthio-9-butyl-9H-purine], `C=CCOc1nc(Nc2ccc(OC)nc2)nc2c1ncn2CCCC` [compound 61, 2-[(2-Methoxypyrid-5-yl)amino]-6-(2-propen-1-oxy)-9-butyl-9H-purine] is higher in melting point: 107 to 109 °C for the first, 174 to 176 °C for the second.

First: CCCCn1cnc2c(OCC)nc(Nc3ccc4ncsc4c3)nc21 [compound 96, 2-[(Benzothiazol-6-yl)amino]-6-ethoxy-9-butyl-9H-purine]
Second: CCCCn1cnc2c(OCC)nc(Nc3ccc(Cl)cc3)nc21 [compound 43, 2-[(4-Chlorophenyl)amino]-6-ethoxy-9-butyl-9H-purine]
The melting point of the first is lower: 150 to 152 °C for the first, 164 °C for the second.

Compared with `CCCCn1cnc2c(OCC(C)C)nc(Nc3cnc4ccccc4c3)nc21` [compound 89, 2-[(Quinolin-3-yl)amino]-6-(2-methylprop-1-oxy)-9-butyl-9H-purine], `CCCCn1cnc2c(OCC)nc(Nc3cnc4ccccc4c3)nc21` [compound 86, 2-[(Quinolin-3-yl)amino]-6-ethoxy-9-butyl-9H-purine] is higher in melting point: 68 to 71 °C for the first, 186 to 188 °C for the second.

First: CCCCn1cnc2c(OCC(F)(F)F)nc(Nc3ccccc3)nc21 [compound 7, 2-(Phenylamino)-6-(2,2,2-trifluoroethoxy)-9-butyl-9H-purine]
Second: CCCCn1cnc2c(OCCO)nc(Nc3ccccc3)nc21 [compound 12, 2-(Phenylamino)-6-(2-hydroxyethoxy)-9-butyl-9H-purine]
The melting point of the first is lower: 102 to 104 °C for the first, 108 to 110 °C for the second.

First: CCCCn1cnc2c(OCCOC)nc(Nc3ccc(OC)nc3)nc21 [compound 57, 2-[(2-Methoxypyrid-5-yl)amino]-6-(2-methoxyethoxy)-9-butyl-9H-purine]
Second: CCCCn1cnc2c(OCCOC)nc(Nc3ccc(OCC)nc3)nc21 [compound 72, 2-[(2-Ethoxypyrid-5-yl)amino]-6-(2-methoxyethoxy)-9-butyl-9H-purine]
The melting point of the first is higher: 138 to 140 °C for the first, 123 to 125 °C for the second.

Compared with `CCCCn1cnc2c(OC)nc(Nc3ccc(OC)c(F)c3)nc21` [compound 53, 2-[(3-Fluoro-4-methoxyphenyl)amino]-6-methoxy-9-butyl-9H-purine], `CCCCn1cnc2c(OC)nc(Nc3ccc(OC)nc3)nc21` [compound 55, 2-[(2-Methoxypyrid-5-yl)amino]-6-methoxy-9-butyl-9H-purine] is lower in melting point: 178 to 179 °C for the first, 171 to 172 °C for the second.

Compared with `CCCCn1cnc2c(OCCC)nc(Nc3cnc4ccccc4c3)nc21` [compound 87, 2-[(Quinolin-3-yl)amino]-6-propoxy-9-butyl-9H-purine], `CCCCn1cnc2c(OCCF)nc(Nc3cnc4ccccc4c3)nc21` [compound 93, 2-[(Quinolin-3-yl)amino]-6-(2-fluoroethoxy)-9-butyl-9H-purine] is lower in melting point: 215 to 220 °C for the first, 181 to 183 °C for the second.

First: CCCCn1cnc2c(OCC)nc(Nc3ccc(OC(C)C)cc3F)nc21.CS(=O)(=O)O [compound 54, 2-[(2-Fluoro-4-isopropoxyphenyl)amino]-6-ethoxy-9-butyl-9H-purine methane sulfonate]
Second: CCCCn1cnc2c(OCC)nc(Nc3ccc(C)cc3C)nc21 [compound 51, 2-[(2,4-Dimethylphenyl)amino]-6-ethoxy-9-butyl-9H-purine]
The melting point of the first is higher: 138 °C for the first, 97 to 99 °C for the second.

First: CCCCn1cnc2c(OCc3cccnc3)nc(Nc3ccccc3)nc21 [compound 16, 2-(Phenylamino)-6-(pyrid-3-ylmethoxy)-9-butyl-9H-purine]
Second: CCCCn1cnc2c(OCc3ccncc3)nc(Nc3ccccc3)nc21 [compound 17, 2-(Phenylamino)-6-(pyrid-4-ylmethoxy)-9-butyl-9H-purine]
The melting point of the first is higher: 206 to 207 °C for the first, 136 to 139 °C for the second.

Compared with `CCCCn1cnc2c(OCCOCC)nc(Nc3ccccc3)nc21` [compound 11, 2-(Phenylamino)-6-(2-ethoxyethoxy)-9-butyl-9H-purine], `CCCCn1cnc2c(OC)nc(Nc3ccccc3)nc21` [compound 2, 2-(Phenylamino)-6-methoxy-9-butyl-9H-purine] is higher in melting point: 135 to 137 °C for the first, 172 to 174 °C for the second.

Compared with `CCCCn1cnc2c(OCCCOCC)nc(Nc3ccc(F)cc3)nc21` [compound 31, 2-[(4-Fluorophenyl)amino]-6-(3-ethoxyprop-1-oxy)-9-butyl-9H-purine], `CCCCn1cnc2c(OCCOC)nc(Nc3ccc(F)cc3)nc21` [compound 28, 2-[(4-Fluorophenyl)amino]-6-(2-methoxyethoxy)-9-butyl-9h-purine] is higher in melting point: 95 to 97 °C for the first, 165 to 166 °C for the second.

First: CCCCn1cnc2c(OCc3ccccn3)nc(Nc3ccc(OC)nc3)nc21 [compound 63, 2-[(2-Methoxypyrid-5-yl)amino]-6-(pyrid-2-ylmethoxy)-9-butyl-9H-purine]
Second: CCCCn1cnc2c(OCc3ccccn3)nc(Nc3ccccc3)nc21 [compound 15, 2-(Phenylamino)-6-(pyrid-2-ylmethoxy)-9-butyl-9H-purine]
The melting point of the first is higher: 150 to 153 °C for the first, 136 to 138 °C for the second.

Compared with `CCCCn1cnc2c(OCC(C)C)nc(Nc3ccccc3)nc21` [compound 6, 2-(Phenylamino)-6-(2-methylprop-1-oxy)-9-butyl-9H-purine], `CCCCn1cnc2c(OC(C)C)nc(Nc3ccccc3)nc21` [compound 5, 2-(Phenylamino)-6-isopropoxy-9-butyl-9H-purine] is higher in melting point: 77 to 79 °C for the first, 116 to 118 °C for the second.

First: COc1nc(Nc2ccccc2)nc2c1ncn2CCC(C)C [compound 24, 2-(Phenylamino)-6-methoxy-9-(3-methylbutyl)-9H-purine]
Second: CCCCn1cnc2c(OC)nc(Nc3ccccc3C)nc21 [compound 46, 2-[(2-Methylphenyl)amino]-6-methoxy-9-butyl-9H-purine]
The melting point of the first is higher: 167 to 169 °C for the first, 91 to 93 °C for the second.

Compared with `CCCCn1cnc2c(OCC(=O)OCC)nc(Nc3ccc(OCC)nc3)nc21` [compound 82, 2-[(2-Ethoxypyrid-5-yl)amino]-6-carboethoxymethoxy-9-butyl-9H-purine], `C#CCOc1nc(Nc2ccc(OCC)nc2)nc2c1ncn2CCCC` [compound 78, 2-[(2-Ethoxypyrid-5-yl)amino]-6-(2-propyn-1-oxy)-9-butyl-9H-purine] is higher in melting point: 77 to 80 °C for the first, 151 to 153 °C for the second.

Compared with `CCCCn1cnc2c(OCC(F)F)nc(Nc3ccc(OCC)nc3)nc21` [compound 80, 2-[(2-Ethoxypyrid-5-yl)amino]-6-(2,2-difluoroethoxy)-9-butyl-9H-purine], `CCCCn1cnc2c(OCC(C)C)nc(Nc3ccc(OC)nc3)nc21` [compound 60, 2-[(2-Methoxypyrid-5-yl)amino]-6-(2-methylprop-1-oxy)-9-butyl-9H-purine] is lower in melting point: 151 to 152 °C for the first, 88 to 90 °C for the second.

Compared with `CCCCn1cnc2c(Oc3ccccc3)nc(Nc3ccc(OC)cc3OC)nc21` [compound 50, 2-[(2,4-Dimethoxyphenyl)amino]-6-phenoxy-9-butyl-9H-purine], `CCCCn1cnc2c(OC)nc(Nc3ccc(OC)cc3OC)nc21` [compound 47, 2-[(2,4-Dimethoxyphenyl)amino]-6-methoxy-9-butyl-9H-purine] is lower in melting point: 129 to 131 °C for the first, 104 to 106 °C for the second.

First: CCCCn1cnc2c(OC)nc(Nc3ccccc3OCC)nc21 [compound 45, 2-[(2-Ethoxyphenyl)amino]-6-methoxy-9-butyl-9H-purine]
Second: CCCCn1cnc2c(OCC3CC3)nc(Nc3ccccc3)nc21 [compound 9, 2-(Phenylamino)-6-(cyclopropylmethoxy)-9-butyl-9H-purine]
The melting point of the first is lower: 77 to 79 °C for the first, 124 to 126 °C for the second.

Compared with `C=C(C)COc1nc(Nc2cnc3ccccc3c2)nc2c1ncn2CCCC` [compound 91, 2-[(Quinolin-3-yl)amino]-6-(2-methyl-2-propen-1-oxy)-9-butyl-9H-purine], `CCCCn1cnc2c(OCc3cccs3)nc(Nc3ccc(OCC)nc3)nc21` [compound 76, 2-[(2-Ethoxypyrid-5-yl)amino]-6-(thien-2-ylmethoxy)-9-butyl-9H-purine] is higher in melting point: 106 to 108 °C for the first, 116 to 118 °C for the second.

First: CCCCn1cnc2c(OCC3CCCO3)nc(Nc3ccc(OC)nc3)nc21 (stereo not shown) [compound 62, 2-[(2-Methoxypyrid-5-yl)amino]-6-tetrahydrofurfuryloxy-9-butyl-9H-purine]
Second: CCCCn1cnc2c(OCCF)nc(Nc3ccc(OC)nc3)nc21 [compound 58, 2-[(2-Methoxypyrid-5-yl)amino]-6-(2-fluoroethoxy)-9-butyl-9H-purine]
The melting point of the first is lower: 147 to 149 °C for the first, 163 to 164 °C for the second.

First: CCCCn1cnc2c(Oc3ccccc3)nc(Nc3ccc(F)cc3)nc21 [compound 33, 2-[(4-Fluorophenyl)amino]-6-phenoxy-9-butyl-9H-purine]
Second: CCCCn1cnc2c(OC)nc(Nc3ccc4c(c3)OCO4)nc21 [compound 95, 2-[(3,4-Methylenedioxyphenyl)amino]-6-methoxy-9-butyl-9H-purine]
The melting point of the first is higher: 171 to 172 °C for the first, 160 to 161 °C for the second.

Work on `CCCCn1cnc2c(Oc3cccnc3)nc(Nc3ccc(F)cc3)nc21.CS(=O)(=O)O` [compound 37, 2-[(4-Fluorophenyl)amino]-6-(pyrid-3-yloxy)-9-butyl-9H-purine methanesulfonate] yielded a melting point of over 300 °C.
